Experimental data from ChEMBL document CHEMBL1201862, “PubChem BioAssay data set” (2004).
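Interpolation was linear, between the two tested concentrations surrounding the appropriate level; five concentrations were tested over 48 hours in 96-well plates. At the GI50, growth is halved.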 The source made the active and inactive calls. Cut-off read from the data, not from the text of the source: active = GI50 up to about 1.1 µM and inactive = higher.

Key:
Test in all cases: inhibition of tumour cell growth, NCI panel, 48 h
MDA-MB-231 = system: MDA-MB-231
DU-145 = system: DU-145
SF-295 = system: SF-295
UACC-257 = system: UACC-257
786-0 = system: 786-0
SW-620 = system: SW-620
NCI/ADR-RES = system: NCI/ADR-RES
Hs-578T = system: Hs-578T
IGROV-1 = system: IGROV-1
K562 = system: K562
MOLT-4 = system: MOLT-4
PC-3 = system: PC-3
RPMI-8226 = system: RPMI-8226
NCI-H522 = system: NCI-H522
SNB-75 = system: SNB-75
NCI-H460 = system: NCI-H460
OVCAR-5 = system: OVCAR-5
SF-539 = system: SF-539
UACC-62 = system: UACC-62
HCC 2998 = system: HCC 2998

Measured: GI50

CCn1c(-c2ccc(/N=N/Nc3ccc(-c4n[nH]c(=S)n4CC)cc3)cc2)n[nH]c1=S
inactive: MDA-MB-231 4.2 µM | DU-145 2.87 µM | SF-295 2.46 µM | UACC-257 3.15 µM | 786-0 4.24 µM | SW-620 4.8 µM | NCI/ADR-RES 28.8 µM | Hs-578T 3.15 µM | IGROV-1 3.09 µM | K562 2.67 µM | MOLT-4 2.17 µM | PC-3 2.75 µM | RPMI-8226 1.92 µM | NCI-H522 1.67 µM | SNB-75 2.79 µM

CCSC12OC3(CCCCCN3C1=O)C1C(=O)N(c3ccccc3)C(=O)C12 (centres undefined)
inactive: MDA-MB-231 > 100 µM | DU-145 > 100 µM | SF-295 > 100 µM | UACC-257 > 100 µM | 786-0 > 100 µM | SW-620 > 100 µM | NCI/ADR-RES > 100 µM | Hs-578T > 100 µM | IGROV-1 > 100 µM | NCI-H460 > 100 µM | K562 > 100 µM | OVCAR-5 > 100 µM | SF-539 > 100 µM | UACC-62 > 100 µM | MOLT-4 > 100 µM | PC-3 > 100 µM | NCI-H522 > 100 µM | SNB-75 > 100 µM

CC(=O)c1cc(C)n2c1CS[C@@H]2c1ccccc1
inactive: MDA-MB-231 43.3 µM | DU-145 29.1 µM | SF-295 65.9 µM | UACC-257 > 100 µM | 786-0 19.7 µM | SW-620 33.7 µM | NCI/ADR-RES 50.1 µM | Hs-578T > 100 µM | IGROV-1 32.7 µM | K562 31.6 µM | OVCAR-5 > 100 µM | MOLT-4 25.2 µM | PC-3 33.3 µM | RPMI-8226 7.85 µM | NCI-H522 30.2 µM | SNB-75 65.8 µM

CN(C)CCNC(=O)c1cccc2c(NC(CCCNC(=N)N)C(=O)O)c3ccccc3nc12 (centres undefined)
inactive: MDA-MB-231 9.27 µM | DU-145 17 µM | SF-295 7.57 µM | 786-0 7.52 µM | SW-620 5.4 µM | NCI/ADR-RES 3.75 µM | Hs-578T 11.4 µM | IGROV-1 4.59 µM | K562 5.68 µM | OVCAR-5 9.95 µM | UACC-62 15.8 µM | MOLT-4 3.89 µM | PC-3 9.1 µM | RPMI-8226 6.59 µM | NCI-H522 3.75 µM | SNB-75 8.83 µM

C=CCCCC1(C)CCCCNC1=O (centres undefined)
inactive: MDA-MB-231 > 10 µM | DU-145 > 10 µM | SF-295 > 10 µM | UACC-257 > 10 µM | 786-0 > 10 µM | SW-620 > 10 µM | NCI/ADR-RES > 10 µM | Hs-578T > 10 µM | IGROV-1 > 10 µM | NCI-H460 > 10 µM | K562 > 10 µM | OVCAR-5 > 10 µM | SF-539 > 10 µM | UACC-62 > 10 µM | HCC 2998 > 10 µM | MOLT-4 > 10 µM | PC-3 > 10 µM | RPMI-8226 > 10 µM | SNB-75 > 10 µM
